Test results from patent US9371265B2, “Compositions and methods related to inhibitors of JAK kinase” (EP PHARMA, INC., priority 2012, dated 2016).

Tests used:
[1] = tested on: IL-3/JAK2-dependent BaF/3 cells; experiment: BaF/3 cell viability (MTS); assay type: cell-based, murine; conditions: identical concentrations of EP009 (up to 10 μM), 72 hours
Experimental: FIGS. 2A-2F. […] (B) Kit225 or (C) BaF/3 cells cultured in the presence of IL-2 or IL-3, respectively, were treated with vehicle (PBS; lane a) or increasing amounts of EP009 (0-50 μM; lanes b-h) for 12 hours. Cells were then lysed, clarified, and immunoprecipitated (IP) with anti-JAK3 (α-JAK3) or anti-JAK2 (α-JAK2), and subjected to Western blot (WB) analysis with anti-phosphotyrosine (α-pY). Blots were stripped and reprobed with corresponding antibody to verify equivalent protein loading. (D) Immunopurified JAK3 was subjected to in vitro autokinase analysis after treatment with vehicle (DMSO; lanes a and b) or ascending concentrations of EP009 (0-10 μM; lanes c-f) for 1 hour at room temperature. […] (E) Kit225 or BaF/3 cells were cultured with increasing amounts of EP009 (0-10 μM) for 72 hours and cell viability measured with the MTS tetrazolium salt assay. Values represent mean absorbance (OD490-OD650 nm) normalized to vehicle (PBS) treated control cells, while error bars represent the standard deviation (n=3). (F) HEK293, HEPG2, or naïve primary human PBMCs were cultured with increasing amounts of EP009 (0-10 μM) for 72 hours and cell viability measured with the MTS tetrazolium salt assay. Values represent mean absorbance (OD490-OD650 nm) normalized to vehicle (PBS) treated control cells, while error bars represent the standard deviation (n=3). […]

MLK1 = MLK1 (Homo sapiens, UniProt P80192); experiment: Kinase panel: MLK1; assay type: biochemical; conditions: 10 μM EP009
MLK1, sequence (P80192 whole entry): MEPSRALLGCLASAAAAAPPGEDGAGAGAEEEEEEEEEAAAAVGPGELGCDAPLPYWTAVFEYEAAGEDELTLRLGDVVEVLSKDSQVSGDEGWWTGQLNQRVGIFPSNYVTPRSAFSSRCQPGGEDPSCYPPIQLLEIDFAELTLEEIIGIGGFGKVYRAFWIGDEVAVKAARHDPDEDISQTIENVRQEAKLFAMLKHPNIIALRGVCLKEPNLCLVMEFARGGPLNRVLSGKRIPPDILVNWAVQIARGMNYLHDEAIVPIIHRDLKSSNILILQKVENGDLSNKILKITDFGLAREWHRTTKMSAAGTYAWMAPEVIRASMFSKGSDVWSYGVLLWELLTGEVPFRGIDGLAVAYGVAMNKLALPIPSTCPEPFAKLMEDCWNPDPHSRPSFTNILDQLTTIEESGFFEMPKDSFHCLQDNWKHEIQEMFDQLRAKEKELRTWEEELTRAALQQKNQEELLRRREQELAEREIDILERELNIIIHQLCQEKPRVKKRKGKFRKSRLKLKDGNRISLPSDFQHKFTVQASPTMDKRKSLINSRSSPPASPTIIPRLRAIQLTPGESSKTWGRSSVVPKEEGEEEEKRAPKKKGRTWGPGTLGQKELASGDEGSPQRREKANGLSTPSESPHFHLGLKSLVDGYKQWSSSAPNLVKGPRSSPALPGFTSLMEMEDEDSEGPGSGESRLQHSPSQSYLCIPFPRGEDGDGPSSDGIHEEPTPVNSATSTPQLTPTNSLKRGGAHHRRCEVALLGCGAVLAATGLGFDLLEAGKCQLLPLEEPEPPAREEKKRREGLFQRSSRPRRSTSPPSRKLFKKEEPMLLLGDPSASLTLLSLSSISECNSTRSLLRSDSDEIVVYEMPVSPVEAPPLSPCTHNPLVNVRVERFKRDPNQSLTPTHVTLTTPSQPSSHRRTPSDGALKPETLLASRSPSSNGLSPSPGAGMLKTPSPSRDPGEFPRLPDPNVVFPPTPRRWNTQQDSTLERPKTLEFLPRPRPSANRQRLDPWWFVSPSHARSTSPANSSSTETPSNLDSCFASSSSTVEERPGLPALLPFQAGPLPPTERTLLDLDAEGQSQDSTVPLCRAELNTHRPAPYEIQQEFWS
Experimental: Achieving JAK3 selectivity remains a significant challenge in the development of new small molecules for the treatment of cancer and immune-derived diseases. As such, the inventors employed cell-based screening assays of small-molecule libraries based upon the chemical scaffold of the established JAK3 inhibitor NC1153 (Stepkowski et al., J Immunol. (2005), 175(7):4236-4246) EP009 (FIG. 2A) was selected as a lead compound due to improved intrinsic stability (>95% purity in various solvents at 37° C. for 24 hours; FIG. 3) and high-degree of JAK3 selectivity. To test JAK3 versus JAK2 specificity of EP009, the IL-2/JAK3-dependent Kit225, and IL-3/JAK2-dependent BaF/3 cell lines were used. Kit225 and BaF/3 cells growing in the presence of IL-2 or IL-3, respectively, were treated with ascending concentrations of EP009 for 12 hours and cellular JAK3 and JAK2 tyrosine phosphorylation levels detected by Western blot analysis (FIGS. 2B and 2C). Following densitometric analysis, EP009 was determined to dose-dependently reduce IL-2-mediated JAK3 tyrosine phosphorylation with a cellular 50% inhibitory concentration (IC50) between 10 and 20 μM (FIG. 2B). […] To globally evaluate specificity, the inhibitory activity of EP009 was measured against a panel of protein kinases distributed throughout the kinome using the scanEDGE profiling service (KINOMEscan). […]

PARP = PARP cleavage in SU-DHL-1 cells (Luminex multiplex); assay type: cell-based, human; conditions: 24 hours, dose-dependent
Experimental: FIGS. 7A-7C. EP009 reduces ALCL cell viability through induction of caspase 3 mediated apoptosis. (A) SUP-M2, SU-DHL-1 or H2228 cells were cultured with increasing amounts of EP009 (0-10 μM) for 72 hours and cell viability measured with the MTS tetrazolium salt assay. Values represent mean absorbance (OD490-OD650 nm) normalized to vehicle (PBS) treated control cells, while error bars represent the standard deviation (n=3). (B) SU-DHL-1 cells were treated with vehicle (PBS) or increasing amounts of EP009 (0-50 μM) for 24 hours. Cells were then lysed, clarified, and subjected to Luminex multiplex analysis to detect activated caspase 3 and (C) cleaved PARP. Values represent MFI normalized to corresponding GAPDH MFI, while error bars represent the standard deviation (n=2). Representative data from three independent experiments are shown. Statistical significance was determined using Student's t-test. (*, p<0.05).
The MILLIPLEX MAP 8-plex Multi-Pathway Signaling Phosphoprotein kit (Millipore) was used to detect phosphorylated ERK1/2 (Thr185/Tyr187), STAT3 (Ser727), JNK1/2 (Thr183/Tyr185), p70 S6 kinase (Thr412), IκBα (Ser32), STAT5A/B (Tyr694/699), CREB (Ser133), and p38 (Thr180/Tyr182). The MILLIPLEX MAP 5-plex STAT Phosphoprotein kit (Millipore) was used to detect phosphorylated STAT1 (Tyr701), STAT2 (Tyr690), STAT3 (Tyr705), STAT5A/B (Tyr694/699), and STAT6 (Tyr641). […]

C=C1CCCCCCCCCC(CO)C1=O (stereo not drawn) [EP009, 2-(Hydroxymethyl)-12-methylenecyclododecanone]
effect on BaF/3 cell viability [1]: no effect
Kinase Activity (% of Control) (MLK1): 100 % of Control
PARP cleavage (PARP): increased
